From patent EP0574185B1, “PGE1 analogs” (NEWPHARMA INTERNATIONAL CORPORATION, priority 1992, dated 1993)

Assays:
[1] = test system: isolated rat uterus under diestrous condition; test: B1: effect on isolated uterus of diestrous rat with basal spontaneous contractions (cumulative curves, Krebs solution); design: species or system Wistar rats; settings: basal 5,85
Procedure: (B1)- Concentration-response curves on isolated rat uterus under diestrous condition were carried out. Wistar rats weighing 250 g to 300 g were employed. The diestrous phase was detected by a daily vaginal smear. The uterus was dissected out and a portion of a horn was placed in a 10 ml organ bath in a similar way to that described in part A. The bath temperature was maintained at 37°C, bubbled with a mixture of 95 % O2 and 5 % CO2 in a Krebs nutrient solution. The organ was left to stabilize for one hour. The isolated uterus presented basal spontaneous contractions under these experimental conditions. Cumulative concentration-response curves were carried out with the addition of either 100 µl or 300 µl of solutions of either natural prostaglandins or B-407 in concentrations of 10^-10 M to 10^-6 M, each 15 minutes without any washing. Uterine contractions and quantitation were performed as described in (A). (B2)- Concentration-response curves in isolated uterus under diestrous (without any spontaneous contractions) were carried out. Sodium diclofenac was added to De Jalon nutrient solution to a final concentration of 4x10^-6 M. The organ was left to stabilize until the absence of spontaneous contractions. Non-cumulative concentration-response curves were obtained. Recordings of the contractions and their quantitation were performed as described in (A).
The frequency and magnitude of the responses were globally evaluated by calculating the total area recorded at a fixed time period as will be further explained. The areas under the curve of the recording paper, over 15 minutes periods, were cut and weighed both in the concentration-response curves and in the potentiating experiments.
The calibration was made by weighing a piece of paper which corresponded to a tension of 1 g at the working sensitivity along 2 minutes. Therefore, a relationship of area expressed in g/2 min was obtained and then the weights of the areas of the responses were transformed to unities of area. The results were expressed as the mean ± the standard error of the areas obtained. The statistical evaluation of the differences was carried out either by ANOVA or by Student's-t-test, as appropriate.

[2] = test system: anesthetized rat; test: Blood pressure and heart rate in anesthetized rat; format: in vivo, male Wistar rats; settings: i.v.; for HR (Heart Rate): basal 440,8 ± 9,7; for Δ MBP (Mean Blood Pressure): basal MBP 120,9 ± 4,6, n= 6
Procedure: The acute effect of B-407 on the cardiovascular system was studied. After doses of 10 µg/kg, 30 µg/kg, and 100 µg/kg, administered intravenously (i.v.) the arterial blood pressure and heart rate were evaluated on male Wistar rats weighing 300 g to 350 g. Rats were anesthetized with 40 mg/kg, i.p., of sodium pentobarbital. The left jugular vein was cannulated by means of polyethylene tubing to allow the i.v. administration of drugs. The trachea was cannulated to facilitate ventilation and the right carotid artery was cannulated to record blood pressure and heart beat. A dose of 350 UI/kg, i.v., sodium heparin was administered. The catheter of the artery was connected to a pressure transducer attached to a Berger polygraph. The volume of the i.v. administrations was 0.4 ml/kg. The working protocol was as follows:
A steady-state recording was obtained over a 30 minutes time period. Then a dose of 0.5 µg/kg of noradrenaline followed by 0.5 µg/kg of isoproterenol were administered over 5 to 10 minutes. After 5 min of recording, increasing doses of B-407 were administered every 15 minutes. The mean arterial blood pressure (mm Hg) was obtained by calculating the average of the values of […]. The heart rate (beats/min) was obtained by counting the number of contractions by units of time.

## CCCCC(C)(O)C/C=C/[C@H]1[C@H](O)CC(=O)[C@@H]1CCCC/C=C/C(=O)OC (mixture of isomers) [B-407, trans-Δ^2-15-deoxy-16-hydroxy-16-methyl PGE1 methyl ester]
[1]; 1x10^-6 M
  Area (g of tension/2 min): 6,46 g of tension/2 min
[1]; 1x10^-7 M
  Area (g of tension/2 min): 7,38 g of tension/2 min
[1]; 1x10^-8 M
  Area (g of tension/2 min): 6,88 g of tension/2 min
[1]; 1x10^-9 M
  Area (g of tension/2 min): 6,14 g of tension/2 min
[2]; 10 µg/kg
  Higher lasting time: 0,66 min
  HR (Heart Rate): 430,6 ± 7,2 Beats / min
  Δ MBP (Mean Blood Pressure): -11,0 ± 1,3 mm Hg
[2]; 30 µg/kg
  Higher lasting time: 2,5 min
  HR (Heart Rate): 420,7 ± 4,1 Beats / min
  Δ MBP (Mean Blood Pressure): -29,8 ± 3,8 mm Hg
[2]; 100 µg/kg
  Higher lasting time: 5,5 min
  HR (Heart Rate): 452,7 ± 16,7 Beats / min
  Δ MBP (Mean Blood Pressure): -47,7 ± 3,3 mm Hg
